Experimental data reported in patent US20210023012A1, “Solid Pharmaceutical Compositions for Treating HCV” (AbbVie Inc., priority 2019, published 2021).

Assays:
[1] = Phase 1 single-dose crossover: bioavailability and food effect of Compound 1/Compound 2 bilayer tablets; assay type: in vivo, human; settings: for Cmax / AUC(0-inf) / AUC(0-t) / half-life / Tmax: human, in vivo, oral, N = 23; for Cmax / AUC(0-inf) / AUC(0-t): geometric mean; for half-life: harmonic mean; for Tmax: median
Method: Phase 1, single-dose, four-period, randomized, complete crossover clinical trials were conducted to determine the bioavailability and food effect of the Compound 1/Compound 2 film-coated bilayer tablets. Tablets described in Table 1b were used in Regimens A, B and C, and separate tablets containing either Compound 1 or Compound 2 were used in Regimen D. Subjects took a single dose of Compound 1/Compound 2 on Day 1 of each Period. There was a washout of 4 days between doses. • i. Regimens A and D: study drugs were taken under fasting conditions. • ii. Regimen B: study drugs were taken approximately 30 minutes after start of moderate-fat breakfast (about 30% calories from fat). • iii. Regimen C: study drugs were taken approx. 30 minutes after start of high-fat breakfast (50% calories from fat). For Regimens A, B and C, the single dose consisted of three tablets of Table 1b, each tablet contains 100 mg/40 mg Compound 1/Compound 2. For Regimen D, the single dose contained three tablets of Compound 1, each of which contained 100 mg Compound 1, as well as three tablets of Compound 2, each of which contained 40 mg Compound 2. [table] [table]

[2] = Single-dose crossover: bioavailability of Compound 1/Compound 2 mini-tablets; assay type: in vivo, human; settings: for Cmax / AUC(0-inf) / AUC(0-t) / half-life / Tmax: human, in vivo, oral, N = 14; for Cmax / AUC(0-inf) / AUC(0-t): geometric mean; for half-life: harmonic mean; for Tmax: median
Method: In comparison, when administered with food, the mini-tablets provided an AUC that was only 5% lower than that provided by the regular tablets. […] All of the reference AUCs of the regular tablets were measured under fasting conditions.
14 subjects were enrolled in this study and dosed with co-formulated Compound 1/Compound 2 in mini-tablets. One subject spilled 4 mini-tablets (out of 100-150 total mini-tablets) during dosing of Period 2 (Regimen G) and was not excluded from the analysis. The mini-tablets were prepared according to a process similar to that described in Example 2.

[3] = Steady-state pharmacokinetics of film-coated granules in pediatric subjects by age group; assay type: in vivo, human; parameters: Ctrough: unit not given here; settings: for Ctrough / AUC: Week 2; for AUC: human, oral, film-coated granules
Method: The study was designed to assess the steady state AUC and to assess the pharmacokinetics (PK) of Compound 1/Compound 2 in pediatric subjects by age group. […] Subjects were enrolled in this study and dosed with film-coated granules containing Compound 1/Compound 2 as generally described above in Example 3. [table] An intensive PK sample draw was done at the Week 2 visit with blood samples taken immediately prior to dose (0 hour) and at 2, 4, 6, and 12 hours post dose.

clinical = settings: human, in vivo
Text: Target AUC was derived from the geometric mean of AUC values from a population of adult subjects who received Compound 1 and Compound 2.

[4] = Predicted PK exposures (Pop-PK AUC) in pediatric subjects; assay type: in vivo; parameters: concentration or dose not given beside the values; settings: human, oral
Text: The predicted PK exposures (“Pop-PK AUC”) of Compound 1/Compound 2 based on all PK information collected in the study (including data from other study weeks) is shown in Table 13 and Table 13a.

[5] = Pharmacokinetic properties in healthy subjects; assay type: in vivo, human; settings: for Tmax: oral, median, single doses
[6] = Binding to human plasma proteins; assay type: in vitro ADME; settings: read-out: % Bound to human plasma proteins (converted)
Blood-to-plasma ratio = assay type: in vitro ADME; settings: human, whole blood/plasma
[7] = Mass balance studies with [14C] compound, single dose; assay type: in vivo, human; settings: single dose of [14C] compound
[8] = Phase 1 single-dose crossover: bioavailability and food effect of Compound 1/Compound 2 bilayer tablets; assay type: in vivo, human; settings: film-coated vs uncoated bilayer tablets, additional studies
[9] = Regimen A: single dose bilayer tablets 300 mg/120 mg, fasting
[10] = Regimen B: single dose bilayer tablets 300 mg/120 mg with moderate fat breakfast
[11] = Regimen C: single dose bilayer tablets 300 mg/120 mg with high fat breakfast
[12] = Regimen D: single dose separate Compound 1 tablets (3 × 100 mg) and Compound 2 tablets (3 × 40 mg), fasting
[13] = Regimen F: single dose mini-tablets 200 mg/120 mg, fasting
[14] = Regimen G: single dose mini-tablets 200 mg/120 mg, non-fasting
[15] = Regimen J: two Compound 1 tablets (100 mg each) and three Compound 2 tablets (40 mg each), fasting
[16] = mean systemic exposure with moderate to high fat meals

Question: Which results are given for `COC(=O)N[C@H](C(=O)N1CCC[C@H]1c1nc2cc([C@H]3CC[C@H](c4cc5nc([C@@H]6CCCN6C(=O)[C@@H](NC(=O)OC)[C@@H](C)OC)[nH]c5cc4F)N3c3cc(F)c(N4CCC(c5ccc(F)cc5)CC4)c(F)c3)c(F)cc2[nH]1)[C@@H](C)OC` [Compound 2]?
Answer: Effect of administration with food on bioavailability ([1]; bilayer tablets): significantly improved; Cmax ([1]; Regimen A: single dose bilayer tablets 300 mg/120 mg (3 × 100 mg/40 mg), fasting): 0.116 µg/mL; AUC(0-inf) [1, 9]: 0.96 µg·h/mL; AUC(0-t) [1, 9]: 0.91 µg·h/mL; half-life [1, 9]: 13.3 h; Tmax [1, 9]: 4 h; AUC(0-inf) [1, 10]: 1.35 µg·h/mL; AUC(0-t) [1, 10]: 1.28 µg·h/mL; Cmax [1, 10]: 0.221 µg/mL; half-life [1, 10]: 13 h; Tmax [1, 10]: 5 h; AUC(0-inf) [1, 11]: 1.46 µg·h/mL; AUC(0-t) [1, 11]: 1.39 µg·h/mL; Cmax [1, 11]: 0.237 µg/mL; half-life [1, 11]: 13.5 h; Tmax [1, 11]: 5 h; AUC(0-inf) [1, 12]: 1.49 µg·h/mL; AUC(0-t) [1, 12]: 1.42 µg·h/mL; Cmax [1, 12]: 0.175 µg/mL; half-life [1, 12]: 12.5 h; Tmax [1, 12]: 4 h; Effect of administration with food on bioavailability ([2]; co-formulated mini-tablets): significantly increased; Cmax ([2]; Regimen F: single dose mini-tablets 200 mg/120 mg Compound 1/Compound 2, fasting): 0.096 µg/mL; AUC(0-inf) [2, 13]: 0.913 µg·h/mL; AUC(0-t) [2, 13]: 0.863 µg·h/mL; half-life [2, 13]: 13.4 h; Tmax [2, 13]: 4 h; Cmax ([2]; Regimen G: single dose mini-tablets 200 mg/120 mg Compound 1/Compound 2, non-fasting): 0.177 µg/mL; AUC(0-inf) [2, 14]: 1.32 µg·h/mL; AUC(0-t) [2, 14]: 1.25 µg·h/mL; half-life [2, 14]: 13.2 h; Tmax [2, 14]: 3 h; Cmax ([2]; Regimen J: single dose two Compound 1 tablets (100 mg each) and three Compound 2 tablets (40 mg each), fasting): 0.139 µg/mL; AUC(0-inf) [2, 15]: 1.26 µg·h/mL; AUC(0-t) [2, 15]: 1.19 µg·h/mL; half-life [2, 15]: 13.3 h; Tmax [2, 15]: 4.5 h; AUC of mini-tablets higher than that of regular tablets (fasting) ([2]; mini-tablets with food, 120 mg Compound 2): 6%; AUC of mini-tablets lower than that of regular tablets (fasting) ([2]; mini-tablets without food, 200 mg Compound 1 / 120 mg Compound 2, same solid dispersion formulation): 28%; Ctrough ([3]; 3 to <6 years old, post-adjustment 150 mg/60 mg, N 10): 17.5 (139); Ctrough ([3]; 6 to <9 years old, post-adjustment 200 mg/80 mg, N 9): 20.0 (119); Ctrough ([3]; 9 to <12 years old, post-adjustment 250 mg/100 mg, N 10): 40.8 (194); AUC ([3]; blood, 3 to <6 years old, pre-adjustment, 3 sachets, 120 mg/45 mg, read-out: AUC, Geometric Mean): 0.871 µg·h/mL; AUC ([3]; blood, 6 to <9 years old, pre-adjustment, 4 sachets, 160 mg/60 mg, read-out: AUC, Geometric Mean): 0.987 µg·h/mL; AUC ([3]; blood, 9 to <12 years old, pre-adjustment, 5 sachets, 200 mg/75 mg Compound 1/Compound 2, read-out: AUC, Geometric Mean): 1.25 µg·h/mL; AUC ([3]; in vivo, 3 to <6 years old, post-adjustment, 3 sachets, 150 mg/60 mg, N 10, read-out: AUC): 1.66 µg·h/mL; AUC ([3]; in vivo, 6 to <9 years old, post-adjustment, 4 sachets, 200 mg/80 mg, N 9, read-out: AUC): 1.52 µg·h/mL; AUC ([3]; in vivo, 9 to <12 years old, post-adjustment, 5 sachets, 250 mg/100 mg Compound 1/Compound 2, N 10, read-out: AUC): 2.3 µg·h/mL; Exposures in children aged 3 to <12 years vs adolescents 12 to <18 years and adults from Phase 2/3 studies ([3]; recommended doses according to body weight): comparable; AUC (clinical): 1.43 µg·h/mL; AUC ([4]; blood, Table 13, 3 to <6 years old, N 10, predicted): 1.43 µg·h/mL; AUC ([4]; blood, Table 13, 6 to <9 years old, N 9, predicted): 1.46 µg·h/mL; AUC ([4]; blood, Table 13, 9 to <12 years old, N 10, predicted from all PK information collected in the study): 1.44 µg·h/mL; AUC ([4]; in vivo, Table 13a, 3 to <6 years old, N 10, predicted): 1.76 µg·h/mL; AUC ([4]; in vivo, Table 13a, 6 to <9 years old, N 9, predicted): 1.73 µg·h/mL; AUC ([4]; in vivo, Table 13a, 9 to <12 years old, N 10, predicted): 2.36 µg·h/mL; Metabolism ([5]; Biotransformation): none; Major route of elimination ([5]; human, in vivo): Biliary; Tmax ([5]; human, in vivo, healthy subjects, read-out: Tmax of granules): 3 to 5 h; Tmax ([5]; human, in vivo, healthy subjects, read-out: Tmax of tablets): 5 h; half-life ([5]; human, in vivo, healthy subjects, read-out: t1/2 at steady-state): 23 to 29 h; Effect of meal (relative to fasting) on adult tablets, ↑ [5, 16]: ↑ 40-53%; Effect of meal (relative to fasting) on granules, ↑ [5, 16]: ↑ 56-115%; fraction unbound [6]: < 0.001; blood plasma ratio (Blood-to-plasma ratio): 0.62; % of dose excreted in faeces [7]: 96.6%; % of dose excreted in urine [7]: 0%; Impact of film-coating on bioavailability [8]: minimal impact
